Tests used:
Test in all cases: radiometric filter-binding kinase assay, Kinase HotSpot
Details in all cases: compound 0.5 µM; ATP 10 µM
CLK3 (human) = CLK3 (human) (UniProt P49761)
ADRBK2 (human) = ADRBK2 (human) (UniProt P35626)
GRK7 (human) = GRK7 (human) (UniProt Q8WTQ7)
EPHA8 (human) = EPHA8 (human) (UniProt P29322)
ERBB2 (human) = ERBB2 (human) (UniProt P04626)
TAOK1 (human) = TAOK1 (human) (UniProt Q7L7X3)
MAPKAPK5 (human) = MAPKAPK5 (human) (UniProt Q8IW41)
PRKCB2 (human) = PRKCB2 (human) (UniProt P05771)
NEK3 (human) = NEK3 (human) (UniProt P51956)
ITK (human) = ITK (human) (UniProt Q08881)
ROCK2 (human) = ROCK2 (human) (UniProt O75116)
PRKD2 (human) = PRKD2 (human) (UniProt Q9BZL6)
STK4 (human) = STK4 (human) (UniProt Q13043)
RPS6KB1 (human) = RPS6KB1 (human) (UniProt P23443)
PDPK1 (human) = PDPK1 (human) (UniProt O15530)
PAK4 (human) = PAK4 (human) (UniProt O96013)
NEK11 (human) = NEK11 (human) (UniProt Q8NG66)
ABL1 (human) = ABL1 (human) (UniProt P00519)
NTRK1 (human) = NTRK1 (human) (UniProt P04629)
PLK2 (human) = PLK2 (human) (UniProt Q9NYY3)
MAP2K1 (human) = MAP2K1 (human) (UniProt Q02750)
TEK (human) = TEK (human) (UniProt Q02763)
SRPK3 (human) = SRPK3 (human) (UniProt Q9UPE1)
TTK (human) = TTK (human) (UniProt P33981)
MARK1 (human) = MARK1 (human) (UniProt Q9P0L2)
PRKX (human) = PRKX (human) (UniProt P51817)
LTK (human) = LTK (human) (UniProt P29376)
EPHB1 (human) = EPHB1 (human) (UniProt P54762)
PHKG1 (human) = PHKG1 (human) (UniProt Q16816)
MST1R (human) = MST1R (human) (UniProt Q04912)
INSRR (human) = INSRR (human) (UniProt P14616)
LCK (human) = LCK (human) (UniProt P06239)
PASK (human) = PASK (human) (UniProt Q96RG2)
NEK7 (human) = NEK7 (human) (UniProt Q8TDX7)
GRK5 (human) = GRK5 (human) (UniProt P34947)
SGK3 (human) = SGK3 (human) (UniProt Q96BR1)
RPS6KA3 KD1 KD2 (human) = RPS6KA3 KD1 KD2 (human) (UniProt P51812)
CAMK2D (human) = CAMK2D (human) (UniProt Q13557)
PRKD1 (human) = PRKD1 (human) (UniProt Q15139)
EPHB2 (human) = EPHB2 (human) (UniProt P29323)
TYRO3 (human) = TYRO3 (human) (UniProt Q06418)
CLK1 (human) = CLK1 (human) (UniProt P49759)

GRK7 (human), sequence (Q8WTQ7 whole entry, looked up): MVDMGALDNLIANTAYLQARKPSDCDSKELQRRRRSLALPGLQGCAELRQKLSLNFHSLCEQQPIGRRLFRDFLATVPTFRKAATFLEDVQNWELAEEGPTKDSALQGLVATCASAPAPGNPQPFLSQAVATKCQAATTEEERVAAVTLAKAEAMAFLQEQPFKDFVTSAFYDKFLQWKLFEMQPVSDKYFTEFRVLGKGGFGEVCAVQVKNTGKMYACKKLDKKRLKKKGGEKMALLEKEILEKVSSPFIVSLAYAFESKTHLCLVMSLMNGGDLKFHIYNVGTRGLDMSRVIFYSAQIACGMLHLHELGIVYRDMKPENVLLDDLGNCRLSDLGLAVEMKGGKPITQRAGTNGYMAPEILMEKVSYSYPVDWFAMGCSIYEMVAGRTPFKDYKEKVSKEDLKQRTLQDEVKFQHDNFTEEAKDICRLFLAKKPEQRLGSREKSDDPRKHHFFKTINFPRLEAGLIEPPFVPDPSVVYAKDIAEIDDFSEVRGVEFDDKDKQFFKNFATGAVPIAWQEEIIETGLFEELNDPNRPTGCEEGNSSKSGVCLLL
INSRR (human), sequence (P14616 whole entry, looked up): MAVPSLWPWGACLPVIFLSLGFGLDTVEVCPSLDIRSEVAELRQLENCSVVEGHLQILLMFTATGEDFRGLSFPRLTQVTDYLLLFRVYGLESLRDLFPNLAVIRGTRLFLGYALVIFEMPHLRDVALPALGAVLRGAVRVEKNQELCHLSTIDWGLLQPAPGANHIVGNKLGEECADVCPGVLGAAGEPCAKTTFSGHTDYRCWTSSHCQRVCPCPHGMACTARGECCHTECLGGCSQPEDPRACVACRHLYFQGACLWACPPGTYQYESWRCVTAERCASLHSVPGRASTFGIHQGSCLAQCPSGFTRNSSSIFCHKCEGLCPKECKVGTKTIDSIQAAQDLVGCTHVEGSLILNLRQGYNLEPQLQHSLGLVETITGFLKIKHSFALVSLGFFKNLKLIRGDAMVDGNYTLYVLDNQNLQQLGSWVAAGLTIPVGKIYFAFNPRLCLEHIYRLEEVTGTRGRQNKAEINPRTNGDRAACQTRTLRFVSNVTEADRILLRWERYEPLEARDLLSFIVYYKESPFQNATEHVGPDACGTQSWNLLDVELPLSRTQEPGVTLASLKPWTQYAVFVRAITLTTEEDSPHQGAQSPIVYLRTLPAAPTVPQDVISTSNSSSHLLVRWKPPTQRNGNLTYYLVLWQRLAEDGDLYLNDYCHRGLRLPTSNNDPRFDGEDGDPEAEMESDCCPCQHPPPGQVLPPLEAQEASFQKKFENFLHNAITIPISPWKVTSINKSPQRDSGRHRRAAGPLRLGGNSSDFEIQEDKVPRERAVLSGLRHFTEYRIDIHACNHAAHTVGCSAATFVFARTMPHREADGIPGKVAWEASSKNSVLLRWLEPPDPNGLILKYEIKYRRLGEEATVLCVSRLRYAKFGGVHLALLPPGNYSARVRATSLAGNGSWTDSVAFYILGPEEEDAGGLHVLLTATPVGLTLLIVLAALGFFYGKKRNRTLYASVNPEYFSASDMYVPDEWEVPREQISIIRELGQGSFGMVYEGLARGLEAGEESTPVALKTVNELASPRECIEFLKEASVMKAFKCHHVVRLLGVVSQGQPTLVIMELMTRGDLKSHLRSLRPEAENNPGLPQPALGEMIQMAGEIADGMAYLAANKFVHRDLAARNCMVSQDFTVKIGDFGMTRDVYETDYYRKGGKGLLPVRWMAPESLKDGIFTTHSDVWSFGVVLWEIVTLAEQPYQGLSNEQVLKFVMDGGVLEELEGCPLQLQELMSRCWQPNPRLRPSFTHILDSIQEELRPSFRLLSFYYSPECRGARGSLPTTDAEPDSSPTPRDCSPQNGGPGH
MARK1 (human), sequence (Q9P0L2 whole entry, looked up): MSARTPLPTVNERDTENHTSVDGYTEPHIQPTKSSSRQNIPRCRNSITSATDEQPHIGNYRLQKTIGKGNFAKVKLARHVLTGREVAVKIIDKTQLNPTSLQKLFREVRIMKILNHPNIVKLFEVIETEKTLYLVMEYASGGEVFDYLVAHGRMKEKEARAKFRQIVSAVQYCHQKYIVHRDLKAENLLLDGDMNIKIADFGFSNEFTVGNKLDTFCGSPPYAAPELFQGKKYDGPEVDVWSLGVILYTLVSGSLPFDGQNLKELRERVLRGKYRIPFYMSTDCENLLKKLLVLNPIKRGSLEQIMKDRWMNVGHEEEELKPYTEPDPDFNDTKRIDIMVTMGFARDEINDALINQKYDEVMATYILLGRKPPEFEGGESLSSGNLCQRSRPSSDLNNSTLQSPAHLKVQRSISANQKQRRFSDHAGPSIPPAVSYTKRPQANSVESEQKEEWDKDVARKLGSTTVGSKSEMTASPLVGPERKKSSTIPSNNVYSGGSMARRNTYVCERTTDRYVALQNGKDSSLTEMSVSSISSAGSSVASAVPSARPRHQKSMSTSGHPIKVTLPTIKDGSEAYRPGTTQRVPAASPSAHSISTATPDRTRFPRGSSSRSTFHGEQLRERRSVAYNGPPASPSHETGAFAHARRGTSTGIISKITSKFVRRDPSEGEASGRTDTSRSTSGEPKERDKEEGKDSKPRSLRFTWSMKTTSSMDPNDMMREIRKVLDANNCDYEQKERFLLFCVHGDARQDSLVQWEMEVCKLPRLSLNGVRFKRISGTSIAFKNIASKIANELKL
TAOK1 (human), sequence (Q7L7X3 whole entry, looked up): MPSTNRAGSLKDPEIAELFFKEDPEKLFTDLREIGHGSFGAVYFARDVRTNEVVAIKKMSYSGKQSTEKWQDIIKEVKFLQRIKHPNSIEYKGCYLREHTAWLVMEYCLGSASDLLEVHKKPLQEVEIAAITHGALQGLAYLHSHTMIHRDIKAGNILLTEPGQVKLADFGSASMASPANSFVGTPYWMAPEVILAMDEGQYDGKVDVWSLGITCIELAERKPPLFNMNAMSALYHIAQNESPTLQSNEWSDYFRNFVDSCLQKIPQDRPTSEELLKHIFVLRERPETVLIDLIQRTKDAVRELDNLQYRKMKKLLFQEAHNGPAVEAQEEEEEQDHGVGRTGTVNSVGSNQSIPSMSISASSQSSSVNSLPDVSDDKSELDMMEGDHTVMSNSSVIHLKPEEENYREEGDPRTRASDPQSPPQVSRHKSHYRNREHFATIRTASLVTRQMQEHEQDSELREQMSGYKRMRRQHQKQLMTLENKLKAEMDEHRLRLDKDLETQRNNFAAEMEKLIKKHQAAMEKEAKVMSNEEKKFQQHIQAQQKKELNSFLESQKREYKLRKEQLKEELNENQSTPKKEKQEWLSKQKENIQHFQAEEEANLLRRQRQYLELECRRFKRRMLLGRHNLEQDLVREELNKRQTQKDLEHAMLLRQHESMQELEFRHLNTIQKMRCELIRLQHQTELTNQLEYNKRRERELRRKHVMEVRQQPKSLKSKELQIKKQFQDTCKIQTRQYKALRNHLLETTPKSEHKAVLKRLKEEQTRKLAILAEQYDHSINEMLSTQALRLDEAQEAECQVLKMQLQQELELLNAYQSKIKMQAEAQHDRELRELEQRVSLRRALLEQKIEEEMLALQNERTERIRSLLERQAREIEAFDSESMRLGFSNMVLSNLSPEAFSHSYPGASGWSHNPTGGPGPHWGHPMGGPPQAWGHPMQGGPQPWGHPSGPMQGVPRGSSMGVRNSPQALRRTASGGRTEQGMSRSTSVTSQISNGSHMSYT
PLK2 (human), sequence (Q9NYY3 whole entry, looked up): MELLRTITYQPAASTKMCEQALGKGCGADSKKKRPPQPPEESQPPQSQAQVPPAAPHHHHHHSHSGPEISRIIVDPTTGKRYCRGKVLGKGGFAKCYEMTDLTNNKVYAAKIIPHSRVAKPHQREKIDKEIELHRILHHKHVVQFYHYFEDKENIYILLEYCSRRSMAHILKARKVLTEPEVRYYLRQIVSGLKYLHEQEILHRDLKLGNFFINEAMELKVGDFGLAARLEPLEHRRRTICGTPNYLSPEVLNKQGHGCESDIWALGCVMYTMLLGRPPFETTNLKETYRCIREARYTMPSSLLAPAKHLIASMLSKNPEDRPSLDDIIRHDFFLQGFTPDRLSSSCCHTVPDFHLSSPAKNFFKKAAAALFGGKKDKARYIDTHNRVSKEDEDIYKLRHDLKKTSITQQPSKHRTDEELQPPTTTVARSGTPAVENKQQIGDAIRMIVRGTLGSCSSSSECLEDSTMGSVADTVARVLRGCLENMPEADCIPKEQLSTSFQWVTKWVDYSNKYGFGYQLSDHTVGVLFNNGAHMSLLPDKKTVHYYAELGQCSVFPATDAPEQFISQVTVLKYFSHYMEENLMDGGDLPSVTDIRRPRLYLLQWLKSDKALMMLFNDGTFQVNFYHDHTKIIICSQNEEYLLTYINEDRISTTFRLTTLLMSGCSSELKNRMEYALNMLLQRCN
PAK4 (human), sequence (O96013 whole entry, looked up): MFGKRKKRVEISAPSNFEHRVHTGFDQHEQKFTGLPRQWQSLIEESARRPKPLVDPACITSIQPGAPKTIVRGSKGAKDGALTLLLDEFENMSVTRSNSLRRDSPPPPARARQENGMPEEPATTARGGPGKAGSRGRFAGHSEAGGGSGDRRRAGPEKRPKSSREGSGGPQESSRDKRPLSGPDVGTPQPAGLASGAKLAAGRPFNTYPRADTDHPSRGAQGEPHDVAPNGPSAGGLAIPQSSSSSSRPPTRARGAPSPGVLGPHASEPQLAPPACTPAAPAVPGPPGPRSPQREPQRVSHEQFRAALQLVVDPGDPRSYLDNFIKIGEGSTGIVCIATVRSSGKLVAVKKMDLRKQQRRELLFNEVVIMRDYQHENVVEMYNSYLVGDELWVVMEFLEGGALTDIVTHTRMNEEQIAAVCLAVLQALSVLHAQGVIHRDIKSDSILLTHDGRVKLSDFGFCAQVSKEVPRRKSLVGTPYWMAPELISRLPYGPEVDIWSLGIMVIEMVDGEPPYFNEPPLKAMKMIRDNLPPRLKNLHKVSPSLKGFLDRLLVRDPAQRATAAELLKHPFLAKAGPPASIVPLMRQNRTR

With CC(C)(C)c1cc(C=C(C#N)C#N)cc(Br)c1O as the compound, how does the residual activity (CLK3 (human)) read?
The residual activity was 122%.

What about the residual activity (ADRBK2 (human)) of the same compound?
The residual activity was 98%.

And the residual activity (GRK7 (human))?
Its residual activity is 107%.

What about the residual activity (EPHA8 (human)) of the same compound?
Its residual activity is 100%.

What about the residual activity (ERBB2 (human)) of the same compound?
The residual activity was 95.7%.

And the residual activity (TAOK1 (human))?
Its residual activity is 97.9%.

And the residual activity (MAPKAPK5 (human))?
The residual activity was 97.4%.

What about the residual activity (PRKCB2 (human)) of the same compound?
The residual activity was 129%.

What about the residual activity (NEK3 (human)) of the same compound?
Its residual activity is 96.6%.

What about the residual activity (ITK (human)) of the same compound?
The residual activity was 98.4%.

What about the residual activity (ROCK2 (human)) of the same compound?
The residual activity was 95.6%.

What about the residual activity (PRKD2 (human)) of the same compound?
Its residual activity is 108%.

And the residual activity (STK4 (human))?
Its residual activity is 90.5%.

And the residual activity (RPS6KB1 (human))?
Its residual activity is 91.3%.

And the residual activity (PDPK1 (human))?
Its residual activity is 102%.

And the residual activity (PAK4 (human))?
Its residual activity is 124%.

What about the residual activity (NEK11 (human)) of the same compound?
Its residual activity is 87%.

And the residual activity (ABL1 (human))?
Its residual activity is 59.8%.

And the residual activity (NTRK1 (human))?
The residual activity was 100%.

And the residual activity (PLK2 (human))?
The residual activity was 92.6%.

What about the residual activity (MAP2K1 (human)) of the same compound?
Its residual activity is 90.8%.

What about the residual activity (TEK (human)) of the same compound?
Its residual activity is 97.9%.

What about the residual activity (SRPK3 (human)) of the same compound?
The residual activity was 79.4%.

What about the residual activity (TTK (human)) of the same compound?
The residual activity was 101%.

What about the residual activity (MARK1 (human)) of the same compound?
Its residual activity is 98.8%.

And the residual activity (PRKX (human))?
The residual activity was 102%.

And the residual activity (LTK (human))?
The residual activity was 96.5%.

What about the residual activity (EPHB1 (human)) of the same compound?
The residual activity was 114%.

And the residual activity (PHKG1 (human))?
Its residual activity is 96.7%.

And the residual activity (MST1R (human))?
The residual activity was 105%.

And the residual activity (INSRR (human))?
Its residual activity is 103%.

And the residual activity (LCK (human))?
The residual activity was 87.8%.

And the residual activity (PASK (human))?
Its residual activity is 96.7%.

And the residual activity (NEK7 (human))?
Its residual activity is 89.5%.

What about the residual activity (GRK5 (human)) of the same compound?
Its residual activity is 108%.

And the residual activity (SGK3 (human))?
The residual activity was 97.7%.

And the residual activity (RPS6KA3 KD1 KD2 (human))?
Its residual activity is 92.2%.

What about the residual activity (CAMK2D (human)) of the same compound?
The residual activity was 96%.

And the residual activity (PRKD1 (human))?
The residual activity was 100%.

And the residual activity (EPHB2 (human))?
The residual activity was 100%.

And the residual activity (TYRO3 (human))?
Its residual activity is 110%.

And the residual activity (CLK1 (human))?
The residual activity was 112%.

N#C/C(=C\c1ccc(O)c(O)c1)C(=O)NCc1ccccc1 was tested. Which residual activity (CLK3 (human)) did it give?
The residual activity was 125%.

And the residual activity (ADRBK2 (human))?
The residual activity was 91.4%.

What about the residual activity (GRK7 (human)) of the same compound?
The residual activity was 103%.

What about the residual activity (EPHA8 (human)) of the same compound?
The residual activity was 92%.

What about the residual activity (ERBB2 (human)) of the same compound?
Its residual activity is 97.6%.

And the residual activity (TAOK1 (human))?
The residual activity was 95.1%.

And the residual activity (MAPKAPK5 (human))?
Its residual activity is 94.2%.

And the residual activity (PRKCB2 (human))?
Its residual activity is 99.8%.

And the residual activity (NEK3 (human))?
The residual activity was 95.1%.

And the residual activity (ITK (human))?
The residual activity was 98.8%.

And the residual activity (ROCK2 (human))?
The residual activity was 94%.

And the residual activity (PRKD2 (human))?
The residual activity was 101%.

What about the residual activity (STK4 (human)) of the same compound?
The residual activity was 95.9%.

And the residual activity (RPS6KB1 (human))?
The residual activity was 92.8%.

And the residual activity (PDPK1 (human))?
The residual activity was 74%.

And the residual activity (PAK4 (human))?
Its residual activity is 111%.

What about the residual activity (NEK11 (human)) of the same compound?
Its residual activity is 95.4%.

What about the residual activity (ABL1 (human)) of the same compound?
The residual activity was 100%.

What about the residual activity (NTRK1 (human)) of the same compound?
Its residual activity is 98.4%.

And the residual activity (PLK2 (human))?
The residual activity was 105%.

And the residual activity (MAP2K1 (human))?
Its residual activity is 94%.

What about the residual activity (TEK (human)) of the same compound?
The residual activity was 95.1%.

And the residual activity (SRPK3 (human))?
Its residual activity is 93.9%.

What about the residual activity (TTK (human)) of the same compound?
Its residual activity is 103%.

And the residual activity (MARK1 (human))?
Its residual activity is 93.8%.

And the residual activity (PRKX (human))?
The residual activity was 99.6%.

And the residual activity (LTK (human))?
The residual activity was 91.4%.

And the residual activity (EPHB1 (human))?
Its residual activity is 87.4%.

What about the residual activity (PHKG1 (human)) of the same compound?
The residual activity was 92.6%.

And the residual activity (MST1R (human))?
Its residual activity is 102%.

What about the residual activity (INSRR (human)) of the same compound?
Its residual activity is 96.3%.

What about the residual activity (LCK (human)) of the same compound?
The residual activity was 95.7%.

And the residual activity (PASK (human))?
The residual activity was 95.1%.

And the residual activity (NEK7 (human))?
Its residual activity is 111%.

What about the residual activity (GRK5 (human)) of the same compound?
The residual activity was 108%.

What about the residual activity (SGK3 (human)) of the same compound?
The residual activity was 102%.

And the residual activity (RPS6KA3 KD1 KD2 (human))?
Its residual activity is 100%.

What about the residual activity (CAMK2D (human)) of the same compound?
The residual activity was 104%.

What about the residual activity (PRKD1 (human)) of the same compound?
The residual activity was 92.5%.

What about the residual activity (EPHB2 (human)) of the same compound?
The residual activity was 99.7%.

And the residual activity (TYRO3 (human))?
Its residual activity is 109%.

And the residual activity (CLK1 (human))?
The residual activity was 98.6%.
